Laboratory results from PMC9877316, “Identification of a novel P2X7 antagonist using structure-based virtual screening” (Frontiers in Pharmacology, 2023).
Converted amounts (≈) assume the structure as drawn.

Experiments:
[1] = molecular target: T1, human P2X7 (Homo sapiens, UniProt Q99572); assay: ATP-induced YoPro-1 dye uptake assay, human P2X7; type: cell-based; settings: 300 µM ATP, YoPro-1 uptake
T1 construct: expressed in transfected cells; host or cells: 1321N1 astrocytoma cells (compounds 1-17); HEK-293 cells stably expressing human P2X7 (gift of E. Adinolfi)
T1 sequence (Q99572 1-595): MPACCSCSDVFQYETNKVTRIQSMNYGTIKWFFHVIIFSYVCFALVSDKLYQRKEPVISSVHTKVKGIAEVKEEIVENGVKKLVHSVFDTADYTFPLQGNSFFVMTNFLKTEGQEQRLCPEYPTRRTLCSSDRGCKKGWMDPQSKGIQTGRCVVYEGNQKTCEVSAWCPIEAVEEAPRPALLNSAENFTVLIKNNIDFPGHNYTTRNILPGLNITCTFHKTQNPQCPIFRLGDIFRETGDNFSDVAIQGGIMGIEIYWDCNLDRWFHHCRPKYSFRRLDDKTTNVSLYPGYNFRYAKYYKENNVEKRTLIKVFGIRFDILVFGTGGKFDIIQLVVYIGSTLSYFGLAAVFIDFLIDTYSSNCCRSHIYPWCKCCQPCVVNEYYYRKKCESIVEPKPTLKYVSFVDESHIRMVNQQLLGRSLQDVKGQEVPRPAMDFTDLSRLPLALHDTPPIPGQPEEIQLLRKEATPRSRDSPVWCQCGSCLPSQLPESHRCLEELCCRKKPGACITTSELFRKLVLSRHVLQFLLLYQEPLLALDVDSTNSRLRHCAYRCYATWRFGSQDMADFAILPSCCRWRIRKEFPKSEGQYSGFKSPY
Description: 1321N1 astrocytoma cells and HEK-293 cells were cultured (at 37°C, 5% CO2) in Dulbecco’s modified Eagle’s medium (DMEM/F-12 with Glutamax) supplemented with 10% foetal bovine serum (FBS) and 200 unit/ml of penicillin and streptomycin antibiotics (Fisher Scientific). For stable cell line generation, cells were transfected using FuGene HD Transfection Reagent (Promega) according to the manufacturer’s protocol with plasmids encoding either human P2X4 with a C-terminal (His)10 tag ([Young et al., 2008]), human P2X7 with a C-terminal EYMPME tag (kindly provided by R.A. North) or rat P2X7 C-terminally tagged with a GFP-(His)8 tag, generated by PCR amplification of the coding sequence for rat P2X7 from a pcDNA-based expression vector ([Young et al., 2007]), adding XhoI and EcoRI sites at the 5′- and 3′- ends respectively, followed by restriction digestion and ligation into a zebrafish P2X4-GFP expression vector based on pEGFP-C1 (kindly provided by Eric Gouaux; [Kawate and Gouaux, 2006]) to replace the zebrafish P2X4 coding region with rP2X7. Transfected clones were grown in DMEM/F-12 with Glutamax medium supplemented with G-418 (Geneticin®, Fisher Scientific), 600 μg/ml and 150 μg/ml during selection and maintenance respectively. […] HEK-293 cells stably expressing human P2X7 ([Adinolfi et al., 2010]) were a kind gift from Elena Adinolfi.
Cells were plated as for the calcium influx assay (Section 2.4). Culture medium was replaced with low divalent cation containing extracellular solution (ECS-LD; 147 mM NaCl, 10 mM HEPES, 13 mM Glucose, .2 mM CaCl2, 2 mM KCl. pH = 7.4 in MilliQ water) and 5 μM Yopro-1. […] The baseline was measured with a BMG Clariostar instrument for 5–10 cycles, followed by addition of ATP (or BzATP) and recording for at least 30 further cycles (approx. 1 min per data point). The collected responses were normalized to the first data-point recorded after ATP addition. The initial gradient of the dye uptake curve was used to calculate the response to ATP.
(§1) The antagonist activity of the 17 compounds (applied at 10 µM) was assayed initially on 1321N1 astrocytoma cells stably expressing human P2X4 receptors by measuring the ATP-induced (applied at 1.2 µM) increase in Fluo-4 fluorescence due to calcium influx via P2X4, using 2 µM BX430 as a positive control (Figure 1A). […] The ATP-induced rate of uptake of YoPro-1 dye was measured upon application of at 300 µM ATP, using .1 µM A740003 as a positive control (Figure 1B).
A small library of 16 commercially available compounds was selected according to the presence of the same scaffold as GP-25, (70% similarity, Tanimoto index) and/or presence of at least one functional group we hypothesized could contribute to GP-25 activity (e.g. carboxylic acid, halogen substituent to the aromatic ring, ester, etc.) (Compounds 18–33; Table 1). […] Although the number of compounds tested was limited by their availability via a commercial source, the numerous ‘hits’ allowed for a basic structure-relationship (SAR) analysis.

[2] = molecular target: T2, human P2X4 (Homo sapiens, UniProt Q99571); assay: Fluo-4 ATP-induced calcium influx assay; type: cell-based; settings: 10 µM compound; 1.2 µM ATP; 1321N1 cells
T2 construct: expressed in transfected cells
T2 sequence (Q99571 1-388): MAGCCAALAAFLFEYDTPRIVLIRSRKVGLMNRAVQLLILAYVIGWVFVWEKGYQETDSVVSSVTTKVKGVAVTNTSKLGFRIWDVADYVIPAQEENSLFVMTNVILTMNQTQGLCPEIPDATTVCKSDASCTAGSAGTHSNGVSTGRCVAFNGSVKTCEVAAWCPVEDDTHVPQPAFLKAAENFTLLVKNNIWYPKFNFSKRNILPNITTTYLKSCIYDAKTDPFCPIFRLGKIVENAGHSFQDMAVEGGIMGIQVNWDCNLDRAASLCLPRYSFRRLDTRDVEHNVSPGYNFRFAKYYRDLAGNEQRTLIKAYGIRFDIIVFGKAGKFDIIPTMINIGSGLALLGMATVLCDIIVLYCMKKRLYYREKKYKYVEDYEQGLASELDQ
Description: 1321N1 astrocytoma cells and HEK-293 cells were cultured (at 37°C, 5% CO2) in Dulbecco’s modified Eagle’s medium (DMEM/F-12 with Glutamax) supplemented with 10% foetal bovine serum (FBS) and 200 unit/ml of penicillin and streptomycin antibiotics (Fisher Scientific). […]
Cells were plated the day before assay into poly-lysine-coated 96-well plates at 40–65,000 cells/ml. […] A Fluoroskan Ascent FL plate reader (Fisher Scientific) equipped with a solution dispenser and an appropriate filter pair (excitation: 485 nm, emission: 538 nm) was used to record 5 s baseline followed by P2X4-mediated calcium influx measurements for 20–25 s after ATP stimulation (20 μL injection of solutions dissolved in modified Ringer’s buffer).
as §1

[3] = Solubility observations; type: physicochemical; settings: read-out: maximum concentration that could be applied (due to solubility issues)

inhibition at 30 µM ([1]; P2X7, approx. % inhibition at 30 μM compound, 1321N1 (1-17) or HEK (18-33) cells, read-out: % Inhibition at hP2X7): ~75% | IC50 [1]: 8.7 µM | antagonist activity at human P2X4 [2]: no activity | solubility [3]: 100 µM (≈ 48.4 µg/mL)
Structure (SMILES): COC(=O)C1=C(C)NC2=C(C(=O)c3ccccc32)C1c1cc(Br)ccc1OCC(=O)O (stereo not shown) [Compound 9, (4-bromo-2-(3-(methoxycarbonyl)-2-methyl-5-oxo-4,5-dihydro-1H-indeno(1,2-b)pyridine-4-yl)phenoxy)acetic acid]
